Legend:
[1] = target: Beta-2 adrenergic receptor (Homo sapiens, UniProt P07550); assay: DRUGMATRIX: Adrenergic beta2 radioligand binding (ligand: [3H] CGP-12177); type: cell membranes, Membrane; details: cho; Not Active = under 50% inhibition at 10 µM
[2] = target: Beta-3 adrenergic receptor (Homo sapiens, UniProt P13945); assay: DRUGMATRIX: Adrenergic beta3 radioligand binding (ligand: [125I] Cyanopindolol); type: cell membranes, Membrane; details: hek293; Not Active = under 50% inhibition at 10 µM
Chain of Beta-3 adrenergic receptor (P13945 whole entry): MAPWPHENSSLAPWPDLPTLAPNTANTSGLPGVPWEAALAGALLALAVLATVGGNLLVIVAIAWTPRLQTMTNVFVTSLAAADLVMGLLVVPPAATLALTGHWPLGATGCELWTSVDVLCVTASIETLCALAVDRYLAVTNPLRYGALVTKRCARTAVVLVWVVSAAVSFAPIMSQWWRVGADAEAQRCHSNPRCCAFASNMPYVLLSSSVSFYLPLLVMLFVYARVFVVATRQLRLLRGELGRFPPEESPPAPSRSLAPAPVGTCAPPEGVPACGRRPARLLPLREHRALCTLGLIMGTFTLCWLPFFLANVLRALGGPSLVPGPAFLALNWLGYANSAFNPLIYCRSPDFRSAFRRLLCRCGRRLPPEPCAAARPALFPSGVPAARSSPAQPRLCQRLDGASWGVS

[3] = target: 5-hydroxytryptamine receptor 6 (Homo sapiens, UniProt P50406); type: cell membranes, HeLa, Membrane; details: hela; also: in other assays of this panel Not Active means under 50% inhibition at 10 µM
Chain of 5-hydroxytryptamine receptor 6 (P50406 whole entry): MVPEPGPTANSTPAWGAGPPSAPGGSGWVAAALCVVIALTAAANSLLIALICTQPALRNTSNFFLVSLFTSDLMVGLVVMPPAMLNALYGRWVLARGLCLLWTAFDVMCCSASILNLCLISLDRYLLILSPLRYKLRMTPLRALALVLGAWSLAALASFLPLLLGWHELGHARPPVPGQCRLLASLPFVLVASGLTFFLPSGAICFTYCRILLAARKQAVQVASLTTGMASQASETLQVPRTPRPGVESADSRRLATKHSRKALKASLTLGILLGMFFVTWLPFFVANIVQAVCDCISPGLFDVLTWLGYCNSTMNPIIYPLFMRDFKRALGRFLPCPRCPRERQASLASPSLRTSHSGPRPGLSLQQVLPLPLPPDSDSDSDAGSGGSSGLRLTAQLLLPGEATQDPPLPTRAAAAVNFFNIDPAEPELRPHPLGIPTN

D(1A) dopamine receptor = D(1A) dopamine receptor (Homo sapiens, UniProt P21728); assay: DRUGMATRIX: Dopamine D1 radioligand binding (ligand: [3H] SCH-23390); type: cell membranes, Membrane; details: cho; Not Active = under 50% inhibition at 10 µM
Chain of D(1A) dopamine receptor (P21728 whole entry): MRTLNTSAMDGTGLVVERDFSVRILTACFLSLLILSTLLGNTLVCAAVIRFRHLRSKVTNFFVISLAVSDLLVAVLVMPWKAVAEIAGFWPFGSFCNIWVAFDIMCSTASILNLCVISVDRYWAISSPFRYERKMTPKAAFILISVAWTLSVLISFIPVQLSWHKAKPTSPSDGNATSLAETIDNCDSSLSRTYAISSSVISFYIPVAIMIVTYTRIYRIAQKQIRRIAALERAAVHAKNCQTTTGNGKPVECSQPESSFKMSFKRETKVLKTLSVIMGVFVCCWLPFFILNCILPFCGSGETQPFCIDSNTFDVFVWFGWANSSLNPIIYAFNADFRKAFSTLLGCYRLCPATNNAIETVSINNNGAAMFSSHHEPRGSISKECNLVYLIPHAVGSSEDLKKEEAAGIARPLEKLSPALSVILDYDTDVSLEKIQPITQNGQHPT

D(3) dopamine receptor = D(3) dopamine receptor (Homo sapiens, UniProt P35462); assay: DRUGMATRIX: Dopamine D3 radioligand binding (ligand: [3H] Spiperone); type: cell membranes, CHO, Membrane; details: cho
Chain of D(3) dopamine receptor (P35462 whole entry): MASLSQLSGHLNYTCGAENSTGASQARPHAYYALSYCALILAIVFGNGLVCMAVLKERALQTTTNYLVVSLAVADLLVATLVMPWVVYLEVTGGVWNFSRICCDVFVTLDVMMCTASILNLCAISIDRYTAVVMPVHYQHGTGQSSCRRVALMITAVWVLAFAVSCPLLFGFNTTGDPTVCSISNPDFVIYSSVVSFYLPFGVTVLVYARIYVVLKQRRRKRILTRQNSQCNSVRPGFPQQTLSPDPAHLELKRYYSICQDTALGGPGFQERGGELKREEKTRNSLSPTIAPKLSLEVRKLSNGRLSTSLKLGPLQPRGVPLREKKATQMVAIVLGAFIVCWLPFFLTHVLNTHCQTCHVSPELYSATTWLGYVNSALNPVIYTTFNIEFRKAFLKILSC

D(4) dopamine receptor = target: T1, D(4) dopamine receptor (Homo sapiens, UniProt P21917); assay: DRUGMATRIX: Dopamine D4.2 radioligand binding (ligand: [3H] Spiperone); type: cell membranes, Membrane; details: cho-k1; Not Active = under 50% inhibition at 10 µM
T1 sequence (P21917 whole entry): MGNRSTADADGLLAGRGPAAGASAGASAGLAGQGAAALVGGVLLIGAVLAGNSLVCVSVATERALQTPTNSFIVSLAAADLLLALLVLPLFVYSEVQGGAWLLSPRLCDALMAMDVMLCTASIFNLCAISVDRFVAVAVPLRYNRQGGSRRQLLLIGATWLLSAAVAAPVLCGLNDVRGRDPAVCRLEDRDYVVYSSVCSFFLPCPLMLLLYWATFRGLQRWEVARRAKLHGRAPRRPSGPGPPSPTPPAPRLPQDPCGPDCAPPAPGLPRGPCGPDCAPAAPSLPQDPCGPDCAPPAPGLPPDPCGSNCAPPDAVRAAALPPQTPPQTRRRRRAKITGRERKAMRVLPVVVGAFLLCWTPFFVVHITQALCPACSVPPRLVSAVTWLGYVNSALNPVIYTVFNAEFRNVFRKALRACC

Endothelin-1 receptor = target: T2, Endothelin-1 receptor (Homo sapiens, UniProt P25101); type: cell membranes, Membrane; details: cho-k1; also: in other assays of this panel Not Active means under 50% inhibition at 10 µM
T2 sequence (P25101 whole entry): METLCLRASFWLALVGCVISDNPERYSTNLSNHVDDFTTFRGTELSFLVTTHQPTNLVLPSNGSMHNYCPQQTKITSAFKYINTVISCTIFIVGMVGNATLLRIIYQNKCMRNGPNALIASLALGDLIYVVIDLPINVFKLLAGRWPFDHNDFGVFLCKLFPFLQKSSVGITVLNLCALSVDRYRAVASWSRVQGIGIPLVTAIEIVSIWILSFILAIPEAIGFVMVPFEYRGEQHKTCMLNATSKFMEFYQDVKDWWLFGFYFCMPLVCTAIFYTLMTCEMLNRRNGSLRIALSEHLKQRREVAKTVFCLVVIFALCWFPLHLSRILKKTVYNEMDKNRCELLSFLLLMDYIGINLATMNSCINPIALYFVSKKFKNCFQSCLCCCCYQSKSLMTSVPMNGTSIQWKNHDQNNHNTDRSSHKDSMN

Measured: IC50

Chain of Beta-2 adrenergic receptor (P07550 whole entry): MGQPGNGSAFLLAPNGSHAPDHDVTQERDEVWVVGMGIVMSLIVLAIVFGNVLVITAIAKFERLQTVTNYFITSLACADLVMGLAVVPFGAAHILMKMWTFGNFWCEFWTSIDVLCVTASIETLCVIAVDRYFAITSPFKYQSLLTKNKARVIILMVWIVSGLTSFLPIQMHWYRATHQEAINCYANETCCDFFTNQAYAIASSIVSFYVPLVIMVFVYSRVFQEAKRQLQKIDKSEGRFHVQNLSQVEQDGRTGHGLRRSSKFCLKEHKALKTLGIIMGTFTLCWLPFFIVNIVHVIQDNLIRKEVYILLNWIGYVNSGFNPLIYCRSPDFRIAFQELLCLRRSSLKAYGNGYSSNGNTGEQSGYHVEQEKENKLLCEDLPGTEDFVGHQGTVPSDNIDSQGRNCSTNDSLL

C/C=C/C[C@@H](C)[C@@H](O)[C@H]1C(=O)N[C@@H](CC)C(=O)N(C)CC(=O)N(C)[C@@H](CC(C)C)C(=O)N[C@@H](C(C)C)C(=O)N(C)[C@@H](CC(C)C)C(=O)N[C@@H](C)C(=O)N[C@H](C)C(=O)N(C)[C@@H](CC(C)C)C(=O)N(C)[C@@H](CC(C)C)C(=O)N(C)[C@@H](C(C)C)C(=O)N1C [CYCLOSPORINE]
Not Active: all assays above

CN(C)/N=N/c1[nH]cnc1C(N)=O [DACARBAZINE]
Not Active: all assays above

COc1ccc2c(c1)[C@]13CCCC[C@@H]1[C@H](C2)N(C)CC3 [DEXTROMETHORPHAN]
Not Active: all assays above

CC(=O)Nc1c(I)c(NC(C)=O)c(I)c(C(=O)O)c1I [DIATRIZOIC ACID]
Not Active: all assays above

COP(=O)(OC)OC=C(Cl)Cl [DICHLORVOS]
Not Active: all assays above

O=C(O)Cc1ccccc1Nc1c(Cl)cccc1Cl [DICLOFENAC]
Not Active: all assays above

C[C@H]1O[C@@H](O[C@H]2[C@@H](O)C[C@H](O[C@H]3[C@@H](O)C[C@H](O[C@H]4CC[C@@]5(C)[C@H](CC[C@@H]6[C@@H]5CC[C@]5(C)[C@@H](C7=CC(=O)OC7)CC[C@]65O)C4)O[C@@H]3C)O[C@@H]2C)C[C@H](O)[C@@H]1O [DIGITOXIN]
Not Active: all assays above

CCN1CC(CCN2CCOCC2)C(c2ccccc2)(c2ccccc2)C1=O (stereo unspecified) [DOXAPRAM]
Not Active: all assays above

Cn1c(=O)c2c(ncn2CC2OCCO2)n(C)c1=O [DOXOFYLLINE]
Not Active: all assays above

COc1cccc2c1C(=O)c1c(O)c3c(c(O)c1C2=O)C[C@@](O)(C(=O)CO)C[C@@H]3O[C@H]1C[C@H](N)[C@H](O)[C@H](C)O1 [DOXORUBICIN]
Not Active: all assays above

COc1cccc2c1C(=O)c1c(O)c3c(c(O)c1C2=O)C[C@@](O)(C(=O)CO)C[C@@H]3O[C@H]1C[C@H](N)[C@@H](O)[C@H](C)O1 [EPIRUBICIN]
Not Active: all assays above

C[C@]12CC[C@@H]3c4ccc(OC(=O)c5ccccc5)cc4CC[C@H]3[C@@H]1CC[C@@H]2O [ESTRADIOL BENZOATE]
Not Active: all assays above

C[C@]12CC[C@@H]3c4ccc(O)cc4CC[C@H]3[C@@H]1CC[C@@H]2O [ESTRADIOL]
Not Active: all assays above

CC[C@@H](CO)NCCN[C@@H](CC)CO [ETHAMBUTOL]
Not Active: all assays above

CC1(C)O[C@@H]2C[C@H]3[C@@H]4C[C@H](F)C5=CC(=O)C=C[C@]5(C)[C@H]4[C@@H](O)C[C@]3(C)[C@]2(C(=O)CO)O1 [FLUNISOLIDE]
Not Active: all assays above

CC1(C)O[C@@H]2C[C@H]3[C@@H]4C[C@H](F)C5=CC(=O)C=C[C@]5(C)[C@@]4(F)[C@@H](O)C[C@]3(C)[C@]2(C(=O)CO)O1 [FLUOCINOLONE ACETONIDE]
Not Active: all assays above

CC1(C)O[C@@H]2C[C@H]3[C@@H]4C[C@H](F)C5=CC(=O)CC[C@]5(C)[C@H]4[C@@H](O)C[C@]3(C)[C@]2(C(=O)CO)O1 [FLURANDRENOLIDE]
Not Active: all assays above

Cc1ccc(S(=O)(=O)NC(=O)NN2CC3CCCC3C2)cc1 (stereo unspecified) [GLICLAZIDE]
Not Active: all assays above

NC(=O)NO [HYDROXYUREA]
Not Active: all assays above

CC(C)Cc1ccc(C(C)C(=O)O)cc1 (stereo unspecified) [IBUPROFEN]
Not Active: all assays above

COc1ccc2c(c1)c(CC(=O)O)c(C)n2C(=O)c1ccc(Cl)cc1 [INDOMETHACIN]
Not Active: all assays above

CCc1c2c(nc3ccc(OC(=O)N4CCC(N5CCCCC5)CC4)cc13)-c1cc3c(c(=O)n1C2)COC(=O)[C@]3(O)CC [IRINOTECAN]
Not Active: all assays above

CC(C(=O)O)c1cccc(C(=O)c2ccccc2)c1 (stereo unspecified) [KETOPROFEN]
Not Active: all assays above

Nc1ccn([C@@H]2CS[C@H](CO)O2)c(=O)n1 [LAMIVUDINE]
Not Active: all assays above

O=S(=O)([O-])CCS.[Na+] [MESNA]
Not Active: all assays above

C#C[C@]1(O)CC[C@H]2[C@@H]3CCc4cc(OC)ccc4[C@H]3CC[C@@]21C [MESTRANOL]
Not Active: all assays above

CC(=O)Nc1cccc(O)c1 [METACETAMOL]
Not Active: all assays above

Cc1ncc([N+](=O)[O-])n1CCO [METRONIDAZOLE]
Not Active: all assays above

From ChEMBL document CHEMBL1909046, “DrugMatrix in vitro pharmacology data”
